Source: patent US10047036B2, “Method for the synthesis of hydroxy-triglycerides and uses thereof for the prevention and treatment of diseases” (UNIVERSITAT DE LES ILLES BALEARS, priority 2014, dated 2018)

Tests used:
plasma glucose = plasma glucose in spontaneously hypertensive rats; assay type: in vivo; conditions: SHR rats, 9 days, 400 mg/kg every 12 hours, p.o.; fasting 12 hours
From the text: Metabolic and cardiovascular pathologies are closely related. The overfeeding which characterises our society not only gives rise to problems of obesity and excess weight. It is also linked to the appearance of diabetes, dyslipidaemia, hypertension, strokes, arteriosclerosis, ictus, etc. All of these pathologies increase the risk of premature death and can even cause death. In this sense, certain natural oils show a certain efficacy against this type of pathologies, but their power is limited. In contrast, the molecules of the invention have an important effect against the development of this type of pathologies. To be able to study the effects of the compounds of the invention for the prevention and treatment of metabolic and cardiovascular pathologies, hypertensive rats were used (SHR strain, spontaneously hypertensive rats). These rats present obesity, high blood pressure, dyslipidaemia (hypercholesterolemia and hypertriglyceridemia), diabetes, metabolic syndrome and other related health problems. At the same time, research was conducted into the efficacy of the hydroxy-triglycerides for controlling the high levels of glycaemia in SHR rats, and therefore, preventing or curing diabetes. Hypertensive rats (SHR) with an approximate weight of 300 grams were treated with TGM1 during 9 days (400 mg/kg, every 12 h, p.o.). Plasma glucose was measured before starting the treatment (basal) and 9 days later. In all cases, the plasma measurements were conducted in rats kept fasting during 12 hours. In this way, after 9 days of treatment, the levels of glucose in blood were reduced by up to more than 25% for the molecules of the invention (FIG. 5 and Table 4). [table]

[1] = test system: MRC5 (non-tumour) human fibroblasts; assay: growth inhibition of normal non-tumour cells, 72 h incubation; assay type: cell-based; conditions: 72 hours of incubation
Method: On the one hand, human cells of different types of cancer were used. The cells were incubated at 37° C. and 5% of CO2 in air, in culture medium RPMI1640 or DMEM with bovine foetal serum (10%) and other supplements and in the presence or absence of the triglycerides of the present invention at different concentrations during 72 hours. It was possible to observe that the hydroxy-triglycerides of the invention have a high efficacy against the growth of human tumour cells, but not against the growth of normal non-tumour cells (human fibroblasts, MRC5).

[2] = test system: Drosophila melanogaster flies with human Alzheimer's genes (F1); assay: geotaxis (climbing) test in Drosophila melanogaster with Alzheimer's disease; assay type: in vivo; conditions: 100 μM in the food; for Geotaxis: age at which the animals showed a geotaxis of nil: no fly passes the line
From the text: (§1) To investigate the effect of TGMs on the cognitive parameters and aging, another model of Alzheimer's disease in Drosophila melanogaster flies with genetic alterations corresponding to human Alzheimer's was used. The flies used were the first generation (F1) from the crossing of UAS-Aβ human-Tau 2N4R (stock 33771) flies with elav-GAL4^c155 (stock 8760) flies. This model which over-expresses the two proteins typical of Alzheimer's disease is complementary to the model described above and very convenient, as these animals have a life of approximately 1 month and it is possible to add the compounds to the food of the larvae to see the preventative effect thereof throughout their entire life. Also, it allows the effect on aging to be seen and on the life expectancy of these animals (survival over time).
(§2) In this sense, the flies with human Alzheimer's (F1) present a greater cognitive decline in comparison to the “Oregon” fly strain, which are the healthy controls. To evaluate the effect of the hydroxy-triglycerides of the invention, each one of the TGMs (100 μM) was added to the food consumed by these animals. It was possible to observe a positive effect of same in the geotaxis test of climbing (FIG. 7B and Table 11). In this test, the behavioural motor activity was investigated in 25 flies treated with vehicle or one of the TGMs. In this study, the flies were introduced in a glass cylinder with an opening closed with a sponge so air could enter. The flies were taken to the ground (bottom) of the pipe by giving it a sharp blow on a table and their behaviour was timed during 20 seconds. Once this time was over, the number of flies which had passed (crossed) a mark at 15 cm from the bottom was counted (geotaxis test). Usually, more than 90% of healthy young flies passed the line within 20 seconds. However, with aging or with Alzheimer's disease, the behavioural motor activity (percentage of flies which crossed the line) declined, compared to normal flies. In this context, the treatments with the hydroxy-triglycerides of the present invention avoided this cognitive decline associated to Alzheimer's, making the cognitive capacity of the diseased flies similar to that of the healthy flies. […] This positive effect on the cognitive parameters in flies was also shown by other TGMs (Table 11). In fact, in the control group with Alzheimer, no fly crossed the line as of 23 days of age. In this sense, the different hydroxy-triglycerides induced marked increases in the geotaxis test values, with increases in the cognitive values which reached up to 36 days, 50% more in the life of the flies with Alzheimer's (Table 11).

[3] = test system: Drosophila melanogaster flies with human Alzheimer's genes (F1); assay: survival of Drosophila melanogaster with Alzheimer's disease; assay type: in vivo; conditions: 100 μM in the food
From the text: as §1, §2

[4] = test system: transgenic rat with 5 mutations of human familial Alzheimer's (Tag); assay: radial maze test in transgenic rats with Alzheimer's; assay type: in vivo; conditions: for Errors made in the radial maze: Tag rats, 50 mg/kg p.o. daily, 100% = healthy animals without Alzheimer's
Method: In order to study Alzheimer's disease a transgenic rat model was used with 5 mutations which appear in human familiar Alzheimer's (symbolised as Tag, and abbreviated Tg). This model of Alzheimer's is very severe, and the animals already show a cognitive deficit at 2 months of age. To carry out this experiment, both young rats (of 3 months of age) and aged rats (of 10 months of age) were used and treated for 3 months with the hydroxy-triglycerides of the present invention (50 mg/kg day, p.o.). The rats were subjected to a low-calorie diet so that they would be hungry and carry out a test in a radial maze, in which food was placed in 4 of the device's 8 arms (asymmetrically), quantifying the number of errors committed until the exercise was completed. […]
The control animals were treated with vehicle (saline) and the rest with 50 mg/kg (p.o.) daily of the indicated compound.

CCCCCC=CCC=CCC=CCCCC(O)C(=O)OCC(COC(=O)C(O)CCCC=CCC=CCC=CCCCCC)OC(=O)C(O)CCCC=CCC=CCC=CCCCCC (stereo not drawn) [TGM3G, 1,2,3-tri(2′-hydroxy-octadec-6′,9′,12′-trienoyl)glycerol]
Δ G, change in glucose levels in plasma (plasma glucose): -9 mg/dL | IC50 [1]: > 500 µM | Geotaxis: age at which the animals showed a geotaxis of nil [2]: 29 days | Survival: age at which all the animals in the group died [3]: 31 days | Errors made in the radial maze [4]: 156.8%

CCCCCC=CCC=CCCCCCCC(O)C(=O)OCC(COC(=O)C(O)CCCCCCC=CCC=CCCCCC)OC(=O)C(O)CCCCCCC=CCC=CCCCCC (stereo not drawn) [TGM2, 1,2,3-tri(2′-hydroxy-octadec-9′,12′-dienoyl)glycerol]
Δ G, change in glucose levels in plasma (plasma glucose): -7 mg/dL | IC50 [1]: > 500 µM | Geotaxis: age at which the animals showed a geotaxis of nil [2]: 29 days | Survival: age at which all the animals in the group died [3]: 33 days | Errors made in the radial maze [4]: 143.2%

CCC=CCC=CCC=CCC=CCC=CCC=CCC(O)C(=O)OCC(COC(=O)C(O)CC=CCC=CCC=CCC=CCC=CCC=CCC)OC(=O)C(O)CC=CCC=CCC=CCC=CCC=CCC=CCC (stereo not drawn) [TGM6, 1,2,3-tri(2′-hydroxy-docosa-4′,7′,10′,13′,16′,19′-hexanoyl)glycerol]
Δ G, change in glucose levels in plasma (plasma glucose): -16 mg/dL | IC50 [1]: > 500 µM | cognitive parameters in the climbing test (FIG. 7B) ([2]; compared with normal flies): practically indistinguishable from that observed in normal flies | Geotaxis: age at which the animals showed a geotaxis of nil [2]: 28 days | Survival: age at which all the animals in the group died [3]: 39 days | Errors made in the radial maze [4]: 84.7% | number of errors in the radial maze (FIG. 7A) ([4]; young and aged Tg rats, 3 months, 50 mg/kg day p.o., errors of first week of tests = 100%): below 100%

CCC=CCC=CCC=CCC=CCC=CCCC(O)C(=O)OCC(COC(=O)C(O)CCC=CCC=CCC=CCC=CCC=CCC)OC(=O)C(O)CCC=CCC=CCC=CCC=CCC=CCC (stereo not drawn) [TGM5, 1,2,3-tri(2′-hydroxy-eicosa-5′,8′,11′,14′,17′-pentaenoyl)glycerol]
Δ G, change in glucose levels in plasma (plasma glucose): -13 mg/dL | IC50 [1]: > 500 µM | Geotaxis: age at which the animals showed a geotaxis of nil [2]: 26 days | Survival: age at which all the animals in the group died [3]: 31 days | Errors made in the radial maze [4]: 121.3%

CCCCCC(O)C(=O)OCC(COC(=O)C(O)CCCCC)OC(=O)C(O)CCCCC (stereo not drawn) [TGM0, 1,2,3-tri(2′-hydroxyheptanoyl)glycerol]
Δ G, change in glucose levels in plasma (plasma glucose): -4 mg/dL | IC50 ([1]; Homo sapiens, MRC5): > 500 µM | Geotaxis: age at which the animals showed a geotaxis of nil [2]: 25 days | Survival: age at which all the animals in the group died [3]: 30 days | Errors made in the radial maze [4]: 153.1%

CCCCCCCCC=CCCCCCCC(O)C(=O)OCC(COC(=O)C(O)CCCCCCC=CCCCCCCCC)OC(=O)C(O)CCCCCCC=CCCCCCCCC (stereo not drawn) [TGM1, 1,2,3-tri(2′-hydroxy-octadec-9′-enoyl)glycerol]
Δ G, change in glucose levels in plasma (plasma glucose): -20 mg/dL | IC50 [1]: > 500 µM | Geotaxis: age at which the animals showed a geotaxis of nil [2]: 32 days | Survival: age at which all the animals in the group died [3]: 45 days | Errors made in the radial maze [4]: 128.9%

CCCCCC=CCC=CCC=CCC=CCCC(O)C(=O)OCC(COC(=O)C(O)CCC=CCC=CCC=CCC=CCCCCC)OC(=O)C(O)CCC=CCC=CCC=CCC=CCCCCC (stereo not drawn) [TGM4, 1,2,3-tri(2′-hydroxy-eicosa-5′,8′,11′,14′-tetraenoyl)glycerol]
Δ G, change in glucose levels in plasma (plasma glucose): -5 mg/dL | IC50 [1]: > 500 µM | Geotaxis: age at which the animals showed a geotaxis of nil [2]: 35 days | Survival: age at which all the animals in the group died [3]: 44 days | Errors made in the radial maze [4]: 101.0%

CCC=CCC=CCC=CCCCCCCC(O)C(=O)OCC(COC(=O)C(O)CCCCCCC=CCC=CCC=CCC)OC(=O)C(O)CCCCCCC=CCC=CCC=CCC (stereo not drawn) [TGM3A, 1,2,3-tri(2′-hydroxy-octadec-9′,12′,15′-trienoyl)glycerol]
Δ G, change in glucose levels in plasma (plasma glucose): -14 mg/dL | IC50 [1]: > 500 µM | Geotaxis: age at which the animals showed a geotaxis of nil [2]: 36 days | Survival: age at which all the animals in the group died [3]: 40 days | Errors made in the radial maze [4]: 134.5%
